From patent US20080038381A1, “APPLICATION OF GREEN TEA EXTRACT AND ITS MAJOR COMPONENTS IN KELOID SCAR THERAPY” (UNIVERSITY OF SOUTHERN CALIFORNIA, priority 2006, published 2008) come the findings set out here.

Molecules are shown by their SMILES.

What all share (assay type): cell-based, human
One data set concerns p-4E-BP. Kind of data set: HMC-1-stimulated p-4E-BP level in keloid fibroblasts (Western blot). To be noted: keloid fibroblasts pretreated 1 h, co-culture 1 h. Here is the method: (§1) FIG. 5 Effects of GTE and EGCG on mast cell-stimulated activation of ERK1/2 and Akt, phosphorylation of p70S6K and 4E-BP-1 in keloid fibroblasts. Keloid fibroblasts (KFs) were pretreated with different concentrations of GTE or EGCG, or various kinase inhibitors for 1 h, followed by direct co-culture with the same number of HMC-1 cells under normal culturing condition for 1 h. Equal amount of cell lysates was subjected to Western blot analysis with an antibodies against ERK1/2 (a), p38 MAPK (b), Akt, p70S6K and 4E-BP1 (c) as described in Materials and Methods. Data presented are representative of results from 3 independent experiments. Keloid fibroblasts (1×10^5/well) were seeded on the bottom of a 6-well plate and maintained at normal culturing conditions for at least 24 h. Different densities of HMC-1 cells were seeded on top of the monolayer of fibroblasts and co-cultured for different time intervals based on experimental purposes. […] Total protein concentrations of whole cell lysates were determined using BioRad BCA method (PIERCE, Rockford, Ill.). […]
A general note: In western blotting, separated proteins are transferred to a membrane and probed.

The test system of a further data set is phosphorylated ERK1/2. Kind of data set: HMC-1-stimulated phosphorylated ERK1/2 level in keloid fibroblasts (Western blot). The following applies: keloid fibroblasts pretreated 1 h, co-culture 1 h. Here is the method:
(§2) FIG. 5 Effects of GTE and EGCG on mast cell-stimulated activation of ERK1/2 and Akt, phosphorylation of p70S6K and 4E-BP-1 in keloid fibroblasts. Keloid fibroblasts (KFs) were pretreated with different concentrations of GTE or EGCG, or various kinase inhibitors for 1 h, followed by direct co-culture with the same number of HMC-1 cells under normal culturing condition for 1 h. Equal amount of cell lysates was subjected to Western blot analysis with an antibodies against ERK1/2 (a), p38 MAPK (b), Akt, p70S6K and 4E-BP1 (c) as described in Materials and Methods. Data presented are representative of results from 3 independent experiments.
(§3) Keloid fibroblasts (1×10^5/well) were seeded on the bottom of a 6-well plate and maintained at normal culturing conditions for at least 24 h. Different densities of HMC-1 cells were seeded on top of the monolayer of fibroblasts and co-cultured for different time intervals based on experimental purposes. […]
(§4) To determine type I collagen, and phosphorylated ERK1/2 and Akt levels, cells were solubilized in lysis buffer (50 mM Tris-HCl, pH 7.5, 150 mM NaCl, 5 mM EDTA, 200 μM Na3VO4, 50 mM NaF, 0.5% Triton X-100) supplemented with 10 mM dithiothreitol (DTT), 200 FM phenylmethylsulfonyl fluoride (PMSF) and protease inhibitor cocktails (Sigma). Total protein concentrations of whole cell lysates were determined using BioRad BCA method (PIERCE, Rockford, Ill.). […]

The subject of the next data set is keloid fibroblasts. Kind of data set: Cell viability by MTT assay, keloid fibroblasts. The following applies: different concentrations, 24 h, normal conditions. In general terms: Tetrazolium assays rely on reduction of a dye to a coloured formazan, in cell work by metabolically active cells.
Another data set deals with p-p70S6K. Kind of data set: HMC-1-stimulated p-p70S6K level in keloid fibroblasts (Western blot). To be noted: keloid fibroblasts pretreated 1 h, co-culture 1 h. Here is the method:
as §2, §3, §4

The test system of another data set is phosphorylated Akt. Kind of data set: HMC-1-stimulated phosphorylated Akt level in keloid fibroblasts (Western blot). To be noted: keloid fibroblasts pretreated 1 h, co-culture 1 h. As for the experimental part:
as §1

A further data set has as its system HMC-1 cells. Description: Cell viability by MTT assay, HMC-1 cells. The following applies: different concentrations, 24 h, normal conditions.
The subject of data set [1] is pro-COL1A1 and COL1A2 gene mRNA. Kind of data set: COL1A1 and COL1A2 mRNA levels by RT-PCR in co-cultured keloid fibroblasts and HMC-1 cells. The following applies: pretreated 1 h, co-culture with HMC-1 cells 24 h. As for the experimental part: (§5) Keloid fibroblasts (1×10^5/well) were seeded on the bottom of a 6-well plate and maintained at normal culturing conditions for at least 24 h. Different densities of HMC-1 cells were seeded on top of the monolayer of fibroblasts and co-cultured for different time intervals based on experimental purposes. To observe the effects of GTE and EGCG or various specific kinase inhibitors on type I collagen expression in keloid fibroblasts co-cultured with HMC-1 cells, fibroblasts at about 80% confluence were pretreated with different concentrations of GTE, EGCG, or various kinase inhibitors for 1 h followed by co-culturing with the same cell density of HMC-1 cells (1:1) under normal culturing conditions for indicated time periods. Cell lysates were prepared for Western blot analysis.
Total RNA was isolated from […] using TRIZOL® Reagent (Invitrogen). RT-PCR analysis of COL1A1, COL1A2 and β-actin mRNA levels was performed using the One-step RT-PCR Kit (QIAGEN, Valencia, Calif.) with primers specific to COL1A1: forward primer 5′-[…]-3′ and reverse primer 5′-[…]-3′; primers for COL1A2: forward primer 5′-[…]-3′ and reverse primer 5′-[…]-3′ (Stefanovic et al., 2005); primers for […]1-actin: forward primer 5′-[…]-3′ and reverse primer 5′-[…]-3′. All the primers were synthesized by Microchemical Core Facility, Norris Cancer Center of University of Southern California.

In data set [2] the test system is type I collagen in keloid fibroblasts. Description: Basal (constitutive) type I collagen level in keloid fibroblasts (Western blot). The following applies: keloid fibroblasts alone, 24 h.
Method: Equal amount of cell lysates (100 μg) was subjected to Western blot analysis with an anti-type I collagen antibody as described in Materials and Methods. […] (c) KFs were cultured in the presence of different concentrations of GTE or EGCG for 24 h, and type I collagen levels were determined by Western blot. (d) Denssitometric analysis of results from c. […] The results represent three independent experiments and expressed as the mean ±SD.
To determine type I collagen, and phosphorylated ERK1/2 and Akt levels, cells were solubilized in lysis buffer (50 mM Tris-HCl, pH 7.5, 150 mM NaCl, 5 mM EDTA, 200 μM Na3VO4, 50 mM NaF, 0.5% Triton X-100) supplemented with 10 mM dithiothreitol (DTT), 200 FM phenylmethylsulfonyl fluoride (PMSF) and protease inhibitor cocktails (Sigma). Total protein concentrations of whole cell lysates were determined using BioRad BCA method (PIERCE, Rockford, Ill.). Equal amounts of protein sampled from whole cell lysates were subjected to electrophoresis on 7.5%-10% sodium dodecyl sulfate (SDS)-polyacrylamide gels and electroblotted onto nitrocellulose membranes (Hybond ECL, Amersham Pharmacia). […]
To find out whether GTE and EGCG have any effects on the basal level of type I collagen in keloid fibroblasts, cells were cultured in the presence of different concentrations of GTE or EGCG for 24 hours and type I collagen levels were determined by Western blot.
The test system of another data set is phosphorylated p38 MAPK. Description: HMC-1-stimulated phosphorylated p38 MAPK level in keloid fibroblasts (Western blot). To be noted: keloid fibroblasts pretreated 1 h, co-culture 1 h. Here is the method: as §2, §3, §4
Data set [3] relates to type I collagen expression in keloid fibroblasts co-cultured with HMC-1 cells. Description: HMC-1-stimulated type I collagen expression in co-cultured keloid fibroblasts (Western blot). The following applies: pretreated 1 h, then co-culture with same density of HMC-1 cells (1:1) for 24 h. Here is the method:
as §5
To determine type I collagen, and phosphorylated ERK1/2 and Akt levels, cells were solubilized in lysis buffer (50 mM Tris-HCl, pH 7.5, 150 mM NaCl, 5 mM EDTA, 200 μM Na3VO4, 50 mM NaF, 0.5% Triton X-100) supplemented with 10 mM dithiothreitol (DTT), 200 FM phenylmethylsulfonyl fluoride (PMSF) and protease inhibitor cocktails (Sigma). Total protein concentrations of whole cell lysates were determined using BioRad BCA method (PIERCE, Rockford, Ill.). Equal amounts of protein sampled from whole cell lysates were subjected to electrophoresis on 7.5%-10% sodium dodecyl sulfate (SDS)-polyacrylamide gels and electroblotted onto nitrocellulose membranes (Hybond ECL, Amersham Pharmacia). After blocking with Tris-buffered saline (TBS)/5% skim milk, the membranes were incubated overnight at 4 °C with primary antibodies against human type I collagen, total or phosphorylated ERK1/2 (Thr202/Tyr204) or Akt (Ser473). Membranes were subsequently washed, incubated with a horseradish peroxidase (HRP) conjugated secondary:antibodies (1:2000) (Pierce, Rockford, Ill.) for 1 h at room temperature, and visualized using an enhanced chemiluminescent (ECL) detection.

Turning to `O=C(O[C@@H]1Cc2c(O)cc(O)cc2O[C@@H]1c1cc(O)c(O)c(O)c1)c1cc(O)c(O)c(O)c1` [EGCG, (−)-epigallocatechin-3-gallate], the “p-4E-BP level stimulated by HMC-1 cells” value with p-4E-BP is reported as “dose-dependent reduction”. For the same compound, in the data set on phosphorylated ERK1/2, the “phosphorylated ERK1/2 level stimulated by co-culture with HMC-1 cells” value is on record as “did not have any obvious inhibitory effects”. The “cell viability (MTT), keloid fibroblasts” value in the data set with keloid fibroblasts is given as “No obvious changes in cell viability”. For the same compound, in the data set with p-p70S6K, the “p-p70S6K level stimulated by HMC-1 cells” value is listed as “dose-dependent reduction”. Also, the “phosphorylated Akt level stimulated by HMC-1 cells” value with phosphorylated Akt was “dose-dependent reduction”. Besides, the “cell viability (MTT), HMC-1 cells” value in the data set with HMC-1 cells is reported as “No obvious changes in cell viability”. In addition, the “HMC-1-stimulated type I collagen mRNA messages (pro-COL1A1, COL1A2) in keloid fibroblasts” value in data set [1] is “dose-dependent reduction”. Besides, the “constitutive (basal) expression of type I collagen in keloid fibroblasts” value in data set [2] is listed as “inhibited the constitutive expression of type I collagen in a dose-dependent manner”. In addition, the “phosphorylated p38 MAPK level stimulated by co-culture with HMC-1 cells” value with phosphorylated p38 MAPK is “did not have any obvious inhibitory effects”. Besides, the “HMC-1-stimulated type I collagen expression (protein production) in keloid fibroblasts” value in [3] is listed as “dose-dependent reduction”.

Consider `COc1cccc(-c2cc(=O)c3ccccc3o2)c1N` [PD98059], for which the “HMC-1-stimulated type I collagen expression (protein production) in keloid fibroblasts” value in [3] is on record as “no obvious inhibitory effects”.

On to `C[S+]([O-])c1ccc(-c2nc(-c3ccncc3)c(-c3ccc(F)cc3)[nH]2)cc1` (stereo not shown) [SB203580], for which the “HMC-1-stimulated type I collagen expression (protein production) in keloid fibroblasts” value in data set [3] is on record as “dose dependent inhibition”.

For `N#CC(=C(/N)Sc1ccccc1N)/C(C#N)=C(\N)Sc1ccccc1N` [U0126], the “HMC-1-stimulated type I collagen expression (protein production) in keloid fibroblasts” value in [3] was “no obvious inhibitory effects”.
